The source of these data is PMC10780910, “Opioid/Dopamine Receptor Binding Studies, NMR and Molecular Dynamics Simulation of LENART01 Chimera, an Opioid-Bombesin-like Peptide” (Molecules, 2024).

The test system of assay [1] is opioid and dopamine receptors. Put plainly: Functional [35S]GTPγS binding, brain membrane. The assay is classed as biochemical, rat (Wistar). Conditions: for Emax ± S.E.M., ligand alone: Tris-EGTA pH 7.4, 0.05 nM [35S]GTPγS; for Emax ± S.E.M., Ligand + Cyprodime: opioid system, + cyprodime (selective MOR antagonist), *** p < 0.001 vs ligand alone (unpaired t-test); for Emax ± S.E.M., Ligand + Risperidone: + risperidone (selective D2R antagonist), *** p < 0.001 vs ligand alone. The procedure: (§1) Both male and female Wistar rats were used for membrane preparations (brains and spinal cords). Animals were housed at 22 ± 0.5 °C with a 12:12 h light–dark cycle. Food and water were available ad libitum. All animal manipulations were carried out according to the European Communities Council Directives ([…]) and the Hungarian Act for the Protection of Animals in Research (XXVIII.tv. 32.§).
(§2) The functional [^35S]GTPγS binding experiments were performed as previously described. In brief, the brain and spinal cord homogenates were incubated at 30 °C for 60 min in Tris-EGTA buffer (pH 7.4) containing [^35S]GTPγS (0.05 nM) and in the presence of varying concentrations of the ligand. Non-specific binding was determined in the presence of non-radiolabeled 10 μM GTPγS. The reaction was stopped by rapid filtration under vacuum (Brandel M24R Cell Harvester), and the samples were washed with cold Tris-HCl buffer. The radioactivity of the dried filters was determined by scintillation counting.
For orientation: GTPγS is a poorly hydrolysed GTP analogue; its binding reports G protein activation.

The test system of assay [2] is opioid and dopamine receptors. Put plainly: Functional [35S]GTPγS binding, spinal cord membrane. The assay is classed as biochemical, rat (Wistar). Particulars: for Emax ± S.E.M., ligand alone / Emax ± S.E.M., Ligand + Cyprodime / Emax / Emax ± S.E.M., Ligand + Risperidone: rat spinal cord membrane, 30 °C, 60 min; for Emax ± S.E.M., ligand alone: Tris-EGTA pH 7.4, 0.05 nM [35S]GTPγS; for Emax ± S.E.M., Ligand + Cyprodime: opioid system, + cyprodime (selective MOR antagonist); for Emax ± S.E.M., Ligand + Cyprodime / Emax / Emax ± S.E.M., Ligand + Risperidone: pH 7.4; for Emax ± S.E.M., Ligand + Cyprodime / Emax ± S.E.M., Ligand + Risperidone: *** p < 0.001 vs ligand alone; for Emax / Emax ± S.E.M., Ligand + Risperidone: dopaminergic system; for Emax: + SCH-39166 (selective D1R antagonist), ns vs ligand alone, read-out: Emax ± S.E.M., Ligand + SCH-39166; for Emax ± S.E.M., Ligand + Risperidone: + risperidone (selective D2R antagonist). The protocol: as §1, §2

The subject of a further assay is MOR. Put plainly: Competitive [3H]DAMGO binding (MOR). Details: species or system rat (Wistar). Particulars: receptor binding assay, rat brain and spinal cord homogenates.
Description: (§3) The chimeric peptide LENART01 was examined in [^3H]DAMGO, [^3H]SCH−23390 and [^3H]Spiperone homolog displacement in rat brains and spinal cord homogenates. The binding affinity of the hybrid and its intrinsic activity value were compared with dermorphin and ranatensin, its structural components.
(§4) Figure 3 Binding affinity of LENART01 at MOR (A,B), D1R (C,D) and D2R (E,F) receptors, respectively, using [^3H]DAMGO and [^3H]SCH−23390 and [^3H]Spiperone as radioligands. Results represent mean ± SEM of 3 independent experiments, each performed in duplicate.
as §1
(§5) Competitive analysis of the chimera activity was performed in the presence of naloxone (in case of MOR displacement studies) or SCH-23390 (for D1R) and spiperone (for D2R). […] The radioactivity of the dried filters was detected using an UltimaGold^TM MV aqueous scintillation cocktail with a Packard Tricarb 2300TR liquid scintillation counter. […]

For the next assay, the system named is D2R. Put plainly: Competitive [3H]Spiperone binding (D2R). Details: species or system rat (Wistar). Conditions: rat brain and spinal cord homogenates.
Description: as §3, §4, §1, §5

A further assay relates to E. coli strains. Particulars: different E. coli strains; cited from earlier work. The source says:
(§6) Noteworthily, the N-terminal pharmacophore of LENART01 consists of dermorphin with an amino acid sequence of YdAFGYPS. At the same time, the C-terminus was constructed from ranatensin, which was additionally heavily modified, resulting in a sequence of GHFM.

Assay [3] concerns dopamine D2 receptor (D2R). Particulars: cited from earlier work.
Description: as §6

The test system of the next assay is dopaminergic receptors. Particulars: ref Zhu et al. 10; cited from earlier work.
[4] abbreviates: rat brain membrane, 30 °C, 60 min.
The mark [5] stands for this setting: rat brain membrane, 30 °C, 60 min, pH 7.4.
Where [6] appears, read: rat brain membrane, dopaminergic system, 30 °C, 60 min, pH 7.4.

Turning to “YdAFGYPS [dermorphin, reference compound]”, the entries for the “Emax ± S.E.M., ligand alone” value in assay [1] (setting [4]) and in assay [2] were 140.5 ± 2.9% and 140.0 ± 1.8%, respectively. The “Emax ± S.E.M., Ligand + Cyprodime” value is recorded as 100.0 ± 1.1 *** % in assay [1] (setting [5]) and 100.4 ± 0.9 *** % in assay [2].
As to YdAFGYPSGHFM [LENART01], the “binding to MOR” value with MOR is “bound to mu-opioid and dopamine receptors”. Besides, the “selectivity to D2R compared to D1R” value with D2R ([3H]Spiperone (D2R) vs [3H]SCH-23390 (D1R), Tris-HCl pH 7.4, 3 independent experiments in duplicate) is on record as “high selectivity to D2R compared to D1R”. Further, the “binding to dopamine receptors” value in the assay with D2R (receptor binding assay in vitro, abstract statement) is “bound to mu-opioid and dopamine receptors”. Further, the Emax (in general, the size of the effect at its maximum, as opposed to the concentration needed) in assay [1] (rat brain membrane, dopaminergic system, + SCH-39166 (selective D1R antagonist), 30 °C, 60 min, pH 7.4, ns for chimera, *** p < 0.001 for ranatensin, read-out: Emax ± S.E.M., Ligand + SCH-39166) amounted to 140.8 ± 0.8%; in assay [2], 136 ± 1.7%. Also, the “Emax ± S.E.M., Ligand + Risperidone” value in assay [1] (setting [6]) is listed as 101.1 ± 0.7 *** %; in assay [2], 101.6 ± 1.2 *** %. In addition, the “Emax ± S.E.M., ligand alone” value was 140.6 ± 1.0% in assay [1] (setting [4]) and 136.3 ± 2.2% in assay [2]. Further, the “Emax ± S.E.M., Ligand + Cyprodime” value in assay [1] (setting [5]) was 100.4 ± 1.4 *** %; in assay [2], 100.8 ± 1.1 *** %. Besides, the “dose-dependent increases in functional binding vs dermorphin” value in assay [1] (rat brain membranes, [35S]GTPγS) is “equal to the increases in dermorphin”. In addition, the “effect of SCH−39166 on efficacy” value in assay [1] (selective D1R antagonist SCH−39166, tissue not specified) was “did not significantly reverse the efficacy”. The “effect of risperidone on stimulation” value in assay [1] (selective D2R antagonist risperidone, tissue not specified) was “brought down the stimulation of LENART01 to basal activity”. Also, the “effect of cyprodime on efficacy” value in assay [1] (selective MOR antagonist cyprodime, tissue not specified) is on record as “reversed the efficacy”. Moreover, the “maximal stimulation vs dermorphin” value in assay [2] (spinal cord membrane, [35S]GTPγS) was “less than that of dermorphin”. Moreover, in the assay with E. coli strains, the antimicrobial activity result is “antimicrobial activity against different E. coli strains”.
With ranatensin [reference compound], in the assay on MOR, the “binding to MOR” value is “did not bind to MOR”. Further, the “Emax ± S.E.M., Ligand + SCH-39166” value in assay [1] (rat brain membrane, dopaminergic system, + SCH-39166 (selective D1R antagonist), 30 °C, 60 min, pH 7.4, ns for chimera, *** p < 0.001 for ranatensin) is given as 119.1 ± 0.8 *** %. Also, the “Emax ± S.E.M., Ligand + Risperidone” value in assay [1] (setting [6]) is given as 101.5 ± 1.7 *** %. Also, the “Emax ± S.E.M., ligand alone” value in assay [1] (setting [4]) came to 124.1 ± 1.9%. Besides, in assay [2], the Emax was 117.4 ± 1.1%; the “Emax ± S.E.M., Ligand + Risperidone” value is 100.0 ± 0.7 *** %; the “Emax ± S.E.M., ligand alone” value came out at 119.8 ± 1.3%. Besides, the “interaction with D2R” value in assay [3] is on record as “known to interact with”. In addition, the “analgesia and naloxone antagonism” value in the assay on dopaminergic receptors is given as “naloxone failed to antagonize the pain-relieving effect”.
